From ChEMBL document CHEMBL1201862, “PubChem BioAssay data set” (2004)
Calls of active or inactive are those of the source.

Legend:
[1] = target: Sphingosine 1-phosphate receptor 1 (Homo sapiens, UniProt P21453); assay type: functional;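 further: Tango beta-arrestin reporter U2OS cells stimulated with S1P near its EC80; inhibitor potency meaning antagonism of receptor activation by the natural agonist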
[2] = target: T1, Sphingosine 1-phosphate receptor 4 (Homo sapiens, UniProt O95977); assay: Late stage fluorescence dose response cell-based screening assay for antagonists of the Sphingosine 1-Phosphate Receptor 4 (S1P4). [Related pubchem assays: 1524 (Confirmation screen (S1P4 antagonists).), 1510 (Primary screen (S1P4 antagonists).), 1853 (Summary AID (S1P4 antagonists).), 1692 (Dose response screen (S1P4 antagonists).)]; assay type: functional
T1 sequence (O95977 whole entry): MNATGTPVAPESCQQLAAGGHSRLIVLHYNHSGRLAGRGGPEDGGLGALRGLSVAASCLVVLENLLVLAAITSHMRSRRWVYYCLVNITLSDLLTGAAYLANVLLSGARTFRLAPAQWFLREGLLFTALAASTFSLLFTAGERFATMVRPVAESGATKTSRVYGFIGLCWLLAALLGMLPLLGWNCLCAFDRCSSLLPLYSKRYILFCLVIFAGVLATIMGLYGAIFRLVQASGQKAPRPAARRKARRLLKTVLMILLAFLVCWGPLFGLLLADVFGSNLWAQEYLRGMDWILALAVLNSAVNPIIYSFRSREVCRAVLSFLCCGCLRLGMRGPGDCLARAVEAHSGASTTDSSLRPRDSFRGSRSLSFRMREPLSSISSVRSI

[3] = target: T2, Replicative DNA helicase DnaB (Mycobacterium tuberculosis, UniProt P9WMR3); assay: DnaB intein splicing inhibitors, dose response, biochemical, cell-free fluorescence (AID 449749); assay type: functional
T2 sequence (P9WMR3 whole entry): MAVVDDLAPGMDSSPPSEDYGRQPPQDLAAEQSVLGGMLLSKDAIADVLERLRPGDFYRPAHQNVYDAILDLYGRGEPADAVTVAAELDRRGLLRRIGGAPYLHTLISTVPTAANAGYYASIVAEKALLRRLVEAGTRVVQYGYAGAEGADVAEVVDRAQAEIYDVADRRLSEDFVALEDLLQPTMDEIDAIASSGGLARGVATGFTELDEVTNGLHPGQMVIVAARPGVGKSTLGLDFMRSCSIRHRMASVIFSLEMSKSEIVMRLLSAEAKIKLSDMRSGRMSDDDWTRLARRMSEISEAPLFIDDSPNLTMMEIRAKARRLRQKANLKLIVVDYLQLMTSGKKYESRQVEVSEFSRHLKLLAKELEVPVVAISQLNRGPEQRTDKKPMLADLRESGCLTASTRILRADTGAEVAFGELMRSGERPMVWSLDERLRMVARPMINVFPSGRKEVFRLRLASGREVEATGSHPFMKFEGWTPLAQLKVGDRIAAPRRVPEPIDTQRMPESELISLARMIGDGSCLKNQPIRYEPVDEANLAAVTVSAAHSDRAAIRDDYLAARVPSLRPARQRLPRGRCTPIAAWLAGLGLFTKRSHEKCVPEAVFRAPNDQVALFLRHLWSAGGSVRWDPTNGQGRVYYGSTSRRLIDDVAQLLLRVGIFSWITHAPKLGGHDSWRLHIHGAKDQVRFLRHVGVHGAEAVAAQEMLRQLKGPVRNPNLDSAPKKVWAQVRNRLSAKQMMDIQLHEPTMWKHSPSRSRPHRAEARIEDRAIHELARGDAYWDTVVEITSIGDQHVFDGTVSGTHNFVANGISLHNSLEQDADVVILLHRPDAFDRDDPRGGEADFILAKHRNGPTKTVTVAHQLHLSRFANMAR

[4] = target: T1, Sphingosine 1-phosphate receptor 4; assay: Fluorescence dose response cell-based high throughput screening assay for antagonists of the Sphingosine 1-Phosphate Receptor 4 (S1P4). [Related pubchem assays: 1524 (Confirmation in triplicates.), 1510 (Primary screen.)]; assay type: functional
[5] = target: Photoreceptor-specific nuclear receptor (Homo sapiens, UniProt Q9Y5X4); assay type: functional, cell-based;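 further: CHO-S cells with Gal4-NCOR and VP16-NR2E3 two-hybrid luciferase reporter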
Protein RecA = target: T3, Protein RecA (Mycobacterium tuberculosis, UniProt P9WHJ3); assay: Fluorescence Cell-Free Homogeneous Dose Retest to Identify Inhibitors of RecA-Intein Splicing Activity. [Related pubchem assays (depositor defined):AID2097, AID2223, AID489010, AID492950]; assay type: functional
T3 sequence (P9WHJ3 whole entry): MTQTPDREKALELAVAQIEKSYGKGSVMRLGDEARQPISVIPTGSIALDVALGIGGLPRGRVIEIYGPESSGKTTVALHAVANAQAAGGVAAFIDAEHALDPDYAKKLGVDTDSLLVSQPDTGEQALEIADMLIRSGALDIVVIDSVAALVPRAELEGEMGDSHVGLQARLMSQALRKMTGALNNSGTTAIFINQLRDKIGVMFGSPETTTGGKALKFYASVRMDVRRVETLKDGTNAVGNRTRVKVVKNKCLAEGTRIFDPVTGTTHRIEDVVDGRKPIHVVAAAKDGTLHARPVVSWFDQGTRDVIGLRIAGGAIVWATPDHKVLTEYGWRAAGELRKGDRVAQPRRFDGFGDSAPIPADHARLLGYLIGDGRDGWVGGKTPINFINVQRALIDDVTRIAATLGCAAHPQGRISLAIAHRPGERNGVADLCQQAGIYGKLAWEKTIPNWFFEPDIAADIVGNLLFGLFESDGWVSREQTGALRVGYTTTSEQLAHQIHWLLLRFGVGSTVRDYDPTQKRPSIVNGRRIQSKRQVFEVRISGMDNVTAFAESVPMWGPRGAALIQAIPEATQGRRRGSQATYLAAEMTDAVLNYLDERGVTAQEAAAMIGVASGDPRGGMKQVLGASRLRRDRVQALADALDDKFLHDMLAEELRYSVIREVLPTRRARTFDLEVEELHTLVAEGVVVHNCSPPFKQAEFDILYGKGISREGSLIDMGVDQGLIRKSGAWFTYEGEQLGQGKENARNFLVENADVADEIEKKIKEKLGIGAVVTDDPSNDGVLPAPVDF

[6] = target: Sphingosine 1-phosphate receptor 2 (Homo sapiens, UniProt O95136); assay: Dose Response Cell Based Assay for Antagonists of the S1P2 Receptor. [Related pubchem assays: 856, 736 ]; assay type: functional
[7] = inhibitors of PGC1a acetylation in cells, dose response, cell-based, cherry-picked samples (AID 720514); assay type: functional;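 further: potency may reflect raised or lowered acetylation signal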
[8] = target: T4, Sentrin-specific protease 1 (Homo sapiens, UniProt Q9P0U3); assay: potency of human SENP1 inhibitors, dose response, biochemical, kinetic FRET (AID 651697); assay type: functional; conditions: read-out: IC50_Mean
T4 sequence (Q9P0U3 whole entry): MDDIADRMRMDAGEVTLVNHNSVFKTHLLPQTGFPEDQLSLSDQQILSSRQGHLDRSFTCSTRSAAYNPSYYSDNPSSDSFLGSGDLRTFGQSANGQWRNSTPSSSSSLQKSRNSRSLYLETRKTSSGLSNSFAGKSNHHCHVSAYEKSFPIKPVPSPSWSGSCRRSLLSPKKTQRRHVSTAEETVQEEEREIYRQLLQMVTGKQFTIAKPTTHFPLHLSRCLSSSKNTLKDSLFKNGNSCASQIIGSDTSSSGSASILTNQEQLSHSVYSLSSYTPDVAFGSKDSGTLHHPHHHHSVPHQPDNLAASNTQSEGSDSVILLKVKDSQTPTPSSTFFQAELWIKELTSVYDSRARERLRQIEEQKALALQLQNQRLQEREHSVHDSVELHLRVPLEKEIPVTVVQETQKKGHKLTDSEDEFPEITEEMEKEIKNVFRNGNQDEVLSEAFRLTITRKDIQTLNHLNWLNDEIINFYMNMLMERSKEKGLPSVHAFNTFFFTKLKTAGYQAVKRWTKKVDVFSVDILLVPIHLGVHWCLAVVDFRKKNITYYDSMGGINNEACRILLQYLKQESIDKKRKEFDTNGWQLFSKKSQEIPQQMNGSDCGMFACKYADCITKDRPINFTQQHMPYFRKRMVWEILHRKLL

[9] = target: T5, Corticotropin-releasing factor receptor 2/Corticotropin-releasing factor-binding protein (Homo sapiens, UniProt P24387+Q13324); assay: Dose Response confirmation of uHTS hits for small molecule antagonists of the CRF-binding protein and CRF-R2 receptor complex.; assay type: functional; conditions: read-out: IC50_Mean
T5 sequence (Q13324 whole entry): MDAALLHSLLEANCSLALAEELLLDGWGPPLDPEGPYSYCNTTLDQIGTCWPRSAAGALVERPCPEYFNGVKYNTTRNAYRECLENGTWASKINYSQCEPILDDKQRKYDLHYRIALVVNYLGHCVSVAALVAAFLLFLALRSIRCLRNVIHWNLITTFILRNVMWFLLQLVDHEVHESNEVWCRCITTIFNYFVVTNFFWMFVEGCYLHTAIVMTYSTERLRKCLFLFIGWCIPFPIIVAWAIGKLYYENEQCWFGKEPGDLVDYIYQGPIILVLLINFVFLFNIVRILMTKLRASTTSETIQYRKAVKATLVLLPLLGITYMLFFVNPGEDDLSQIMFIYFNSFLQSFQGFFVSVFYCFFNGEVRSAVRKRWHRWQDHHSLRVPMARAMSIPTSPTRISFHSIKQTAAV
T5 sequence (P24387 whole entry): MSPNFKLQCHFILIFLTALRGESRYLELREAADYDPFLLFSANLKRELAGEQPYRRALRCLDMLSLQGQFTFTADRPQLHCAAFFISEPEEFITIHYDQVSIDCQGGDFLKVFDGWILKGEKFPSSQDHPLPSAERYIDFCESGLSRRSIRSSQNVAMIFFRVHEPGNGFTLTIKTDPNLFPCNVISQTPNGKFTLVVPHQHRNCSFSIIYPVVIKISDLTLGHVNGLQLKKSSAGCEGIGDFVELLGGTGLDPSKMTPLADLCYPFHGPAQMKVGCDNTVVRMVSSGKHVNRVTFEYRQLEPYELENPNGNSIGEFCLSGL

[10] = target: T5, Corticotropin-releasing factor receptor 2/Corticotropin-releasing factor-binding protein; assay: activators of CRF receptor 2 with binding protein – uHTS hits, confirmation (AID 602473); assay type: functional; conditions: read-out: EC50_Mean
[11] = target: T4, Sentrin-specific protease 1; assay: Dose response confirmation of small molecule inhibitors of the catalytic domain of the SUMO protease, SENP1 in a FRET assay.; assay type: functional; conditions: read-out: IC50_Mean
[12] = target: Induced myeloid leukemia cell differentiation protein Mcl-1 (Homo sapiens, UniProt Q07820); assay type: functional
[13] = inhibitors of Bluetongue virus cytopathic effect, confirmation, arbovirus, BSR cells (AID 1250); assay type: functional;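 further: protection from viral cytopathic effect measured as cell viability by ATP luminescence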
Ion channel NompC = Ion channel NompC (Danio rerio, UniProt Q7T1G6); assay: Fluorescence counterscreen assay for TRPML3 agonists: dose response cell-based high-throughput screening assay to identify agonists of the transient receptor potential channel N1 (TRPN1). [Related pubchem assays: 1526, 1424, 1448 ]; assay type: functional
Mucolipin-3 = Mucolipin-3 (Homo sapiens, UniProt Q8TDD5); assay: Dose response cell-based high-throughput screening assay for agonists of the transient receptor potential channel ML3 (TRPML3). [Related pubchem assays: 1526, 1424, 1448 ]; assay type: functional
[14] = target: T6, Neuropeptide Y receptor type 2 (Homo sapiens, UniProt P49146); assay type: functional, cell-based;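 further: HEK293 cells expressing the receptor and a CNG channel; stimulus was NPY near EC95 followed by isoproterenol to raise cAMP; antagonist potency measured as restoring cAMP signal that NPY suppresses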
T6 sequence (P49146 whole entry): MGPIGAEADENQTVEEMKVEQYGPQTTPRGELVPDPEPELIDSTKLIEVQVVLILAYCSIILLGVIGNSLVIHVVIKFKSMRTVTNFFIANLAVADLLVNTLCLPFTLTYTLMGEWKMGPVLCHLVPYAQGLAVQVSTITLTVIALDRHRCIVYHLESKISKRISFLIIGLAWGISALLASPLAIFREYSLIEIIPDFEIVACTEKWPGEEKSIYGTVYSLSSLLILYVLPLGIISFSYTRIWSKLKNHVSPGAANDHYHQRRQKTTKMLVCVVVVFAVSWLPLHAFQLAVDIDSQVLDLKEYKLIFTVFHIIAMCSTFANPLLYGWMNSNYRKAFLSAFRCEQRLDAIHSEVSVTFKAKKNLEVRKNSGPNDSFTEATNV

[15] = target: T7, Neuropeptide Y receptor type 1 (Homo sapiens, UniProt P25929); assay type: functional;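 further: HEK293 cells with a CNG channel challenged with NPY then isoproterenol; potency as antagonist that reverses NPY suppression of cAMP signal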
T7 sequence (P25929 whole entry): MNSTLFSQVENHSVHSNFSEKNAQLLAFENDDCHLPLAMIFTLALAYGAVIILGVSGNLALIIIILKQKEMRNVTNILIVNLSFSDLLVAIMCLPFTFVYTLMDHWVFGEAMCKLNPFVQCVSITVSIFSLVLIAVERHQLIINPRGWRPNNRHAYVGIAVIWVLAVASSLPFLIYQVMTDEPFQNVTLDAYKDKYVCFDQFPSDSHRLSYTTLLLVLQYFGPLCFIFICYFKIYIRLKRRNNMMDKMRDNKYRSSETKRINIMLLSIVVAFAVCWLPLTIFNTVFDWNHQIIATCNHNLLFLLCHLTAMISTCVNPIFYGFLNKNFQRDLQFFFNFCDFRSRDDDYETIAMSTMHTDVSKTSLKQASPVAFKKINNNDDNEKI

HeLa = assay: Cytotoxicity counterscreen assay for transcriptional activators of heat shock protein 70 (Hsp70). [Related pubchem assays: 1203, 1252 ]; assay type: functional; conditions: Homo sapiens;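 further: cells exposed to compound for 16 hours before readout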
Bcl-2-like protein 10 = target: T8, Bcl-2-like protein 10 (Homo sapiens, UniProt Q9HD36); assay: Biochemical TR3 FP assay of Bcl-B inhibitor potency, EC50 (AID 1243); assay type: functional
T8 sequence (Q9HD36 whole entry): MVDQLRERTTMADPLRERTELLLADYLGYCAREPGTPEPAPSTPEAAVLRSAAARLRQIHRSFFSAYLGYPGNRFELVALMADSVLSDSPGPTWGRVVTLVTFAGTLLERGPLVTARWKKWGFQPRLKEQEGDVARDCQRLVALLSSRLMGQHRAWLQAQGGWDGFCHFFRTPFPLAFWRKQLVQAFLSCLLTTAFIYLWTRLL

Induced myeloid leukemia cell differentiation protein Mcl-1, sequence (Q07820 whole entry): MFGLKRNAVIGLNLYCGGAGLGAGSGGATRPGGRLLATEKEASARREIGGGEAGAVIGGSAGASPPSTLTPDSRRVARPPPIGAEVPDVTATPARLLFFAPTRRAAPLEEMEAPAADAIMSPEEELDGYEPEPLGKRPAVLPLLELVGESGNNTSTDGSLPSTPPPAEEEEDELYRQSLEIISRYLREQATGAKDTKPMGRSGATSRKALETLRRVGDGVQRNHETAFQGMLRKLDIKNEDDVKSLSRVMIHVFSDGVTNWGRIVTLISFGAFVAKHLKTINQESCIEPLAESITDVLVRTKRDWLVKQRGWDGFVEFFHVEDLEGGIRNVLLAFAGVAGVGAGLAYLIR
Sphingosine 1-phosphate receptor 2, sequence (O95136 whole entry): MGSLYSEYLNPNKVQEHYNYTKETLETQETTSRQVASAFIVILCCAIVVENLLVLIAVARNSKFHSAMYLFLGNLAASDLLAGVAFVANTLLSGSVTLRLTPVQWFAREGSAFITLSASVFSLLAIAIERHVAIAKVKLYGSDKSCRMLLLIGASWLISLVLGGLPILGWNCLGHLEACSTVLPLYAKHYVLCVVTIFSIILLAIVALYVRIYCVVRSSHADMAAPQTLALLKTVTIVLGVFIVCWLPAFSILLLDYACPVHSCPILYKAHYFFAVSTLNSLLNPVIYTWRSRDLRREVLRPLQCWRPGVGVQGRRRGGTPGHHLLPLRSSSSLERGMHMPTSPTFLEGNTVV
Photoreceptor-specific nuclear receptor, sequence (Q9Y5X4 whole entry, the tested form may be a part): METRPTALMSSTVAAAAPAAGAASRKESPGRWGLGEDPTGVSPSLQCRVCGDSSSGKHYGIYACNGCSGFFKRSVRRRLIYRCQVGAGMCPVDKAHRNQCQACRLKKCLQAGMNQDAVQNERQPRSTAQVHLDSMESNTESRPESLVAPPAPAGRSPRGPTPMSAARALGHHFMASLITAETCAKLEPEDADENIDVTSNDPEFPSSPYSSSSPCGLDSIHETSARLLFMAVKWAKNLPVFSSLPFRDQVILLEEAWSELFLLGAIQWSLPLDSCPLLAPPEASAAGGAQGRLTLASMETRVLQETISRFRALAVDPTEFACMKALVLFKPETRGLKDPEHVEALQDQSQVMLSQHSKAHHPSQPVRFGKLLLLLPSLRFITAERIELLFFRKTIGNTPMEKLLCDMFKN
Sphingosine 1-phosphate receptor 1, sequence (P21453 whole entry): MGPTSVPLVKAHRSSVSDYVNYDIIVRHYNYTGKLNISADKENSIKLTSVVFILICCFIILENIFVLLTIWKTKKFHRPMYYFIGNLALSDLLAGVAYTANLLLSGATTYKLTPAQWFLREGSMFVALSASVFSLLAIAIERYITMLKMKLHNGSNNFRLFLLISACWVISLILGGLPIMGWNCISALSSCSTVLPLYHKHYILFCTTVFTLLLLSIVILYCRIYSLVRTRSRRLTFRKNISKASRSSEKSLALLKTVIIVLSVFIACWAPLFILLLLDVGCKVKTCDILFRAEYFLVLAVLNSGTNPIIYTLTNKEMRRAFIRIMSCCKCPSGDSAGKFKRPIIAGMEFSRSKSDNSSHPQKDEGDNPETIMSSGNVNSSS
Ion channel NompC, sequence (Q7T1G6 whole entry): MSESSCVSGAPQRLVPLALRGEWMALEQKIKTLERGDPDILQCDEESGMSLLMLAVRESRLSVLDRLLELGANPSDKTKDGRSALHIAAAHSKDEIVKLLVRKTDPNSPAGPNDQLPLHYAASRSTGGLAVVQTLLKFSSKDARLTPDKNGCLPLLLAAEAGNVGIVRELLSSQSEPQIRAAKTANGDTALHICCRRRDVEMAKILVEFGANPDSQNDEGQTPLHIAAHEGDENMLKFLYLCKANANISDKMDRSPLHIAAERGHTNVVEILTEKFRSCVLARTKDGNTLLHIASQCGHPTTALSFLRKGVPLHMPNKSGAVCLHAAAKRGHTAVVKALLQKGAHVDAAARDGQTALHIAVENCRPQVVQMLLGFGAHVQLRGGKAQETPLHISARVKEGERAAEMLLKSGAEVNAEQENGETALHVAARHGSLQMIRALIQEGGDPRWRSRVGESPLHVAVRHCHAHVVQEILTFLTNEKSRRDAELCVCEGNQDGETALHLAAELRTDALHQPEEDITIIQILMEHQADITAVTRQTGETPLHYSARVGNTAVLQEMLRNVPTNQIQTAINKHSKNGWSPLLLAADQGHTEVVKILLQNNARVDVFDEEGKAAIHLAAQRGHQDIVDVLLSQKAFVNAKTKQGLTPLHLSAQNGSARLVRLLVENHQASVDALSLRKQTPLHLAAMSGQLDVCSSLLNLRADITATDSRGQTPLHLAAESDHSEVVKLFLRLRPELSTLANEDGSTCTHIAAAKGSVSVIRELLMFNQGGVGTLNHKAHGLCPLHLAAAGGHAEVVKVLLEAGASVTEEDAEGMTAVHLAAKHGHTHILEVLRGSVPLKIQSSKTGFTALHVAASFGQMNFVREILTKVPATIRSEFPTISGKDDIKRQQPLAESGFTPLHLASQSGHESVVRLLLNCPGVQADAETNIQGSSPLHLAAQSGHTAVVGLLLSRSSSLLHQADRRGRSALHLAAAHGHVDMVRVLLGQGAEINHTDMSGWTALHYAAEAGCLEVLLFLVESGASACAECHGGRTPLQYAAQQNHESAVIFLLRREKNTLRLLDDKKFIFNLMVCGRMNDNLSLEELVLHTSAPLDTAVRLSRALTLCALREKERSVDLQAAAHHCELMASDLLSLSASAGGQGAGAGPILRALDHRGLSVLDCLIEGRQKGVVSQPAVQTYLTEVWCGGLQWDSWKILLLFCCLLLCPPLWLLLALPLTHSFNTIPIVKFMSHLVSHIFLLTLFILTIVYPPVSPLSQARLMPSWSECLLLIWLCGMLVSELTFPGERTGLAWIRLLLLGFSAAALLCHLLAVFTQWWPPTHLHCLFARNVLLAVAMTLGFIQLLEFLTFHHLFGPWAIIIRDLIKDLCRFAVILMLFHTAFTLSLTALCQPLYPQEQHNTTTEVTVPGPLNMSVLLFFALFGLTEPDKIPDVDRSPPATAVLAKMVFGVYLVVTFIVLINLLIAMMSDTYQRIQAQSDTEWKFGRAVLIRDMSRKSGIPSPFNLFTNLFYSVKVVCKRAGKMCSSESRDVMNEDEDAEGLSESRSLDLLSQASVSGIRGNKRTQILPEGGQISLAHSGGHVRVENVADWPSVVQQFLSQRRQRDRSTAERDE
Mucolipin-3, sequence (Q8TDD5 whole entry): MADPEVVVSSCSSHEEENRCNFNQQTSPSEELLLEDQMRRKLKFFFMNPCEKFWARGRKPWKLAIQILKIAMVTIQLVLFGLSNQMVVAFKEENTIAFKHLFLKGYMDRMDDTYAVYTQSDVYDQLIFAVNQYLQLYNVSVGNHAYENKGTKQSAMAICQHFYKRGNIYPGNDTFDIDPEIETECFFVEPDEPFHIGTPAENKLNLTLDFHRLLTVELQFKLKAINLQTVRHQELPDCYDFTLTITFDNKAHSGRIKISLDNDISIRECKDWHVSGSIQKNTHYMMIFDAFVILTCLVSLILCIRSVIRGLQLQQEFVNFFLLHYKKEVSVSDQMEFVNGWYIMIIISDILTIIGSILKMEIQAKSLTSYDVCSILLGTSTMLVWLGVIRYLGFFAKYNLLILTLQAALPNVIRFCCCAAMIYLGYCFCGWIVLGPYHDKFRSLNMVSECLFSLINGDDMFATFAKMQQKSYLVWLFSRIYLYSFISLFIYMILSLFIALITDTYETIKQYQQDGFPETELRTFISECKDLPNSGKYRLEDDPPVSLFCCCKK

COc1ccc(NC(=O)/C(Cl)=C(/Cl)S(=O)(=O)Cc2ccccc2)cn1
IC50 [1]: 8.15 µM (active)
IC50 [2]: 5.28 µM (not active)
AC50 [3]: 2.44 µM (active)
IC50 [4]: 0.829 µM (active)
IC50 [5]: 1.15 µM (active)
EC50 (Protein RecA): 2.79 µM (active)
IC50 [6]: 1.76 µM (active)
AC50 [7]: 5.17 µM (active)

COc1ccccc1C1C2=C(N=c3s/c(=C/c4cccc(OCC(=O)O)c4)c(=O)n31)c1ccccc1CC2 (configuration not stated)
IC50 [8]: 18.9 µM (active)
IC50 [9]: > 47.1 µM (inactive)
EC50 [10]: > 53 µM (inactive)
IC50 [11]: 25.4 µM (inactive)
IC50 [12]: 2.51 µM (active)
IC50 [13]: 21.3 µM (active)

Cc1cc(C)cc(N2C(=O)CSC2c2cccs2)c1 (configuration not stated)
EC50 [10]: > 53 µM (inactive)
EC50 (Ion channel NompC): > 29.9 µM (not active)
EC50 (Mucolipin-3): > 29.9 µM (not active)

COc1ccc(-c2nnc3sc(C(C)N4C(=O)c5ccccc5C4=O)nn23)cc1 (configuration not stated)
IC50 [14]: 6.02 µM (active)
IC50 [15]: 9.35 µM (active)

COC(=O)Nc1ccc(S(=O)(=O)NCc2ccccn2)cc1
IC50 [12]: 6.18 µM (not active)
CC50 (HeLa): > 99 µM (not active)

COC(=O)C1=C(C)N(C)C(=O)NC1c1cc2c(cc1[N+](=O)[O-])OCO2 (configuration not stated)
EC50 (Bcl-2-like protein 10): 17.4 µM (active)
